In patent EP0241395A2, “Sweeteners derived from n-phenylguanidinoacetic and n-phenylethananamidinacetic acids, and compositions containing such sweeteners” (UNIVERSITE CLAUDE BERNARD - LYON 1, priority 1986, dated 1987):

Test system: groupe de huit goûteurs expérimentés
Assay: Sweetening power judged by a panel of eight experienced tasters against a sucrose reference solution
Type: in vivo
Conditions: weight basis; for Pouvoir édulcorant: Table II, relative to a 2 % sucrose solution; for pouvoir édulcorant, sur une base pondérale: approximate
Source text: Le pouvoir édulcorant des composés préparés dans les exemples suivants a été évalué par un groupe de huit goûteurs expérimentés. Pour cela, les composés, en solution aqueuse à des concentrations variables, sont comparés, sur le plan gustatif, à une solution témoin de saccharose à 2 % et dans certains cas à 5 % et 10 %, c'est-à-dire à des concentrations correspondant à celles utilisées lors d'un usage courant. Le pouvoir sucrant des édulcorants de synthèse varie en effet suivant la concentration de la solution de saccharose utilisée comme référence. Le pouvoir édulcorant du composé testé par rapport au saccharose correspond alors au rapport pondéral qui existe entre le composé et le saccharose à égale intensité édulcorante, c'est-à-dire quand les saveurs sucrées de la solution du composé testé et de la solution témoin de saccharose sont considérées, par une majorité de goûteurs, avoir la même intensité édulcorante.

[1] = by comparison with a 2 % sucrose solution
[2] = by comparison with a 5 % sucrose solution
[3] = by comparison with a 10 % sucrose solution

Compound | Pouvoir édulcorant | pouvoir édulcorant, sur une base pondérale [1] | pouvoir édulcorant, sur une base pondérale [2] | pouvoir édulcorant, sur une base pondérale [3]
Cc1ccccc1N=C(NCC(=O)O)Nc1ccc(C#N)cc1 [Exemple 64, acide N-[N-(2-méthylphényl)amino (4-cyanophénylimino)méthyl]-2-aminoéthanoïque] | 5000 | ~5 000 fois celui du saccharose | – | –
N#Cc1ccc(N=C(NCC(=O)O)NCC23CC4CC(CC(C4)C2)C3)cc1 [Exemple 72, acide N-[N-(l-adamantylméthyl)amino(4-cyanophénylimino)méthyl]-2-aminoéthanoïque] | 23000 | ~23 000 fois celui du saccharose | – | –
N#Cc1ccc(N=C(NCC(=O)O)NCc2ccccc2)cc1 [Exemple 52, acide N-[N-benzylamino(4-cyanophénylimino)méthyl]-2-aminoéthanoïque] | 30000 | ~30 000 fois celui du saccharose | ~27 000 fois celui du saccharose | ~22 000 fois celui du saccharose
Cc1cc(C)cc(N=C(NCC(=O)O)N(C)Cc2ccccc2)c1 [Exemple 88, acide N-[N-méthyl-N-benzylamino (3,5-diméthylphénylimino)méthyl]-2-aminoéthanoïque] | 5000 | ~5 000 fois celui du saccharose | – | –
O=C(O)CN=C(NCC1CCCCC1)Nc1ccc(C(=O)O)cc1 [Exemple 61, acide N-[N-cyclohexylméthylamino(4-carboxyphénylimino)méthyl]-2-aminoéthanoïque] | 50 | ~50 fois celui du saccharose | – | –
O=C(O)CNC(=Nc1cc(Cl)cc(Cl)c1)Nc1cc(Cl)cc(Cl)c1 [Exemple 81, acide N-[N-3,5-dichlorophénylamino (3,5-dichlorophénylimino)méthyl]-2-aminoéthanoïque] | 1000 | ~1 000 fois celui du saccharose | – | –
N#Cc1ccc(N=C(NCC(=O)O)NN2CCOCC2)cc1 [Exemple 77, acide N-[N-morpholinoamino(4-cyano-phénylimino)méthyl]-2-aminoéthanoïque] | 950 | ~950 fois celui du saccharose | – | –
CC1(C)SC(C)(C)C1NC(=Nc1ccc(C#N)cc1)NCC(=O)O [Exemple 78, acide N-[N-(2,2,4,4-tétraméthylthiacyclobut-3-yl)amino(4-cyanophénylimino)méthyl]-2-amino-éthanoïque] | 700 | ~700 fois celui du saccharose | – | –
C[C@H](NC(=Nc1cccc(Br)c1)NCC(=O)O)c1ccccc1 [Exemple 2, acide N-[N-(S)-a-méthylbenzylamino (3-bromophénylimino)méthyl]-2-aminoéthanoïque] | 25000 | ~25 000 fois celui du saccharose | – | –
N#Cc1ccc(N=C(NCCc2ccccc2)NCC(=O)O)cc1 [Exemple 53, acide N-[N-phényléthylamino(4-cyanophénylimino)méthyl]-2-aminoéthanoïque] | 8 500 | ~8 500 fois celui du saccharose | ~6 100 fois celui du saccharose | ~4 200 fois celui du saccharose
CCCCCCN=C(NCC(=O)O)Nc1ccc(C#N)cc1 [Exemple 36, acide N-[N-hexylamino(4-cyanophénylimino)méthyl]-2-aminoéthanoïque] | 6000 | ~6 000 fois celui du saccharose | ~4 300 fois celui du saccharose | ~1400 times sucrose
O=C(O)CNC(=Nc1ccc([N+](=O)[O-])cc1)NCC1CCCCC1 [Exemple 62, acide N-[N-cyclohexylméthylamino(4-nitrophénylimino)méthyl]-2-aminoéthanoïque] | 8000 | ~8 000 fois celui du saccharose | ~7 500 fois celui du saccharose | ~4 000 fois celui du saccharose
N#Cc1ccc(N=C(NCC(=O)O)N2CCCCC2)cc1 [Exemple 83, acide N-[N,N-(pentaméthylène)amino (4-cyanophénylimino)méthyl]-2-aminoéthanoïque] | 200 | ~200 fois celui du saccharose | – | –
C[C@@H](NC(=Nc1ccc(C#N)cc1)NCC(=O)O)c1ccccc1 [Exemple 54, acide N-[N-(R)-a-méthylbenzylamino (4-cyanophénylimino)méthyl]-2-aminoéthanoïque] | 9000 | ~9 000 fois celui du saccharose | ~6600 times sucrose | ~2 500 fois celui du saccharose
N#Cc1ccc(N=C(NCC(=O)O)Nc2cccc3ccccc23)cc1 [Exemple 69, acide N-[N-1-naphtylamino(4-cyanophénylimino)méthyl)-2-aminoéthanoïque] | 60000 | ~60 000 fois celui du saccharose | – | –
CC(C)(C)CC(C)(C)NC(=Nc1ccc(C#N)cc1)NCC(=O)O [Exemple 39, acide N-[N-(1,1,3,3-tétraméthylbut-yl)amino(4-cyanophénylimino)méthyl]-2-aminoéthanoïque] | 1 200 | ~1 200 fois celui du saccharose | – | –
N#CN=C(NCC(=O)O)Nc1cccc(Cl)c1 [Exemple 73, acide N-[cyanoimino(3-chlorophénylamino)méthyl]-2-aminoéthanoïque] | 80 | ~80 fois celui du saccharose | – | –
C[C@H](NC(=Nc1ccccc1)NCC(=O)O)c1ccccc1 [Exemple 1, acide N-[N-(S)-α-méthylbenzylamine (phénylimino)méthyl]-2-aminoéthanoïque] | 5000 | ~5 000 fois celui du saccharose | – | –
N#Cc1ccc(N=C(NCC(=O)O)NC23CC4CC(CC(C4)C2)C3)cc1 [Exemple 71, acide N-[N-(1-adamantyl)amino(4-cyanophénylimine)méthyl]-2-8minoéthanoique] | 3 500 | ~3 500 fois celui du saccharose | – | –
O=C(O)CNC(=Nc1cccc2ccccc12)Nc1cc(Cl)cc(Cl)c1 [Exemple 68, acide N-[N-1-naphtylamino (3,5-dichlorophénylimino)méthyl]-2-aminoéthanoïque] | 30000 | ~30 000 fois celui du saccharose | – | –
CN(C(=Nc1ccc(C#N)cc1)NCC(=O)O)c1ccccc1 [Exemple 74, acide N-[N-(N-méthyl-N-phénylamino) (4-cyanophénylimino)méthyl]-2-aminoéthanoïque] | 18000 | ~18 000 fois celui du saccharose | – | –
N#Cc1ccc(N=C(NCC(=O)O)Nc2ccc3c(c2)OCO3)cc1 [Exemple 75, acide N-[N-(3,4-méthylènedioxyphényl)amino(4-cyanophénylimino)méthyl]-2-aminoéthanoïque] | 5000 | ~5 000 fois celui du saccharose | – | –
N#Cc1ccc(N=C(NCC(=O)O)NC2CCCCCCC2)cc1Cl [Exemple 49, acide N-[N-cyclooctylamino(3-chloro-4-cyanophénylimino)méthyl]-2-aminoéthanoïque] | 100000 | ~100 000 fois celui du saccharose | – | –
CC(C)CCNC(=Nc1ccc(C#N)cc1)NCC(=O)O [Exemple 37, acide N-[N-(3-méthylbutyl)amino (4-cyanophénylimino)méthyl)-2-aminoéthanoïque] | 200 | ~200 fois celui du saccharose | – | –
COc1ccc(N=C(NCC(=O)O)N[C@@H](C)c2ccccc2)cc1 [Exemple 19, acide N-[N-(S)-α-méthylbenzylamino (4-méthoxyphénylimino)méthyl]-2-aminoéthanoïque] | 2 100 | ~2100 times sucrose | – | –
C[C@H](NC(=Nc1ccc(O)cc1)NCC(=O)O)c1ccccc1 [Exemple 20, acide N-[N-(S)-α-méthylbenzylamino (4-hydroxyphénylimino)méthyl]-2-aminoéthanoïque] | 400 | ~400 fois celui du saccharose | – | –
O=C(O)CNC(=Nc1ccccc1)Nc1ccccc1 [Exemple 40, acide N-[N-phénylamino(phénylimino)méthyl]-2-aminoéthanoique] | 500 | ~500 fois celui du saccharose | – | –
C[C@H](NC(=Nc1ccc(C(F)(F)F)cc1)NCC(=O)O)c1ccccc1 [Exemple 11, acide N-[N-(S)-α-méthylbenzylamino (4-trifluorométhylphénylimino)méthyl]-2-aminoéthanoïque] | 500 | ~500 fois celui du saccharose | – | –
CN(C(=NCc1ccccc1)NCC(=O)O)c1ccccc1 [Exemple 84, acide N-[benzylimino(N-méthyl-N-phénylamino)méthyl]-2-aminoéthanoïque] | 200 | ~200 fois celui du saccharose | – | –
COc1cc(NC(=N[C@@H](C)c2ccccc2)NCC(=O)O)cc(C(F)(F)F)c1 [Exemple 24, acide N-[N-(S)-α-méthylbenzylamino (3-trifluorométhyl-5-méthoxyphénylimino)méthyl]-2-amino-éthanoïque] | 7000 | ~7 000 fois celui du saccharose | – | –
